From patent EP0400440B1, “Amino acid derivative anticonvulsant” (RESEARCH CORPORATION TECHNOLOGIES, INC., priority 1989, dated 1990) come the findings set out here.

The test system of data set [1] is male Carworth Farms #1 mice. Description: Maximal electroshock seizure test (MES). It is filed as in vivo. Particulars: Mus musculus, maximal electroshock seizures. The source says:
(§1) Pharmacology. The following compounds were'tested for anticonvulsant activity using male Carworth Farms #1 mice: • N-Acetyl-D,L-alanine-N'-benzylamide • N-Acetyl-D-alanine-N'-benzylamide • N-Acetyl-L-alanine-N'-benzylamide • N-Acetyl-D,L-phenylglycine-N'-methylamide • N-Acetylglycine-N-benzylamide • N-Acetyl-D,L-valine-N-benzylamide • N-Acetyl-D,L-phenylglycine-N-benzylamide • N-Acetyl-D-phenylglycine-N-benzylamide • N-Acetyl-L-phenylglycine-N-benzylamide • N-Acetyl-D,L-alanine-N-(3-methoxy)benzylamide • N-Trimethylacetyl-D,L-alanine-N-benzylamide • N-Acetyl-D,L-methionine-N-benzylamide • N-Acetyl-D,L-alanine-N'-(3-fluoro)benzylamide • D,L-α-Acetamido-N-benzyl-3-thiopheneacetamide • D,L-α-Acetamido-N-benzyl-2-thiopheneacetamide • D,L-α-Acetamido-N-benzyl-2-furanacetamide • D,L-α-Acetamido-N-benzyl-2-pyrroleacetamide • D,L-2-Acetamido-N-benzyl-2-ethoxyacetamide • D,L-α-Acetamido-N-benzyl-2-(5-methylfuran)acetamide • D,L-α-Acetamido-N-benzyl-2-benzofuranacetamide • D,L-α-Acetamido-N-benzyl-2-benzo[b]thiopheneacetamide • D,L-α-Acetamido-N-benzyl-2-(5-methylpyrrole)acetamide • D,L-α-Acetamido-N-(2-fluorobenzyl)-2-furanacetamide • D,L-α-Acetamido-N-(3-fluorobenzyl)-2-furanacetamide • D,L-α-Acetamido-N-(4-fluorobenzyl)-2-furanacetamide • D,L-α-Acetamido-N-(2,5-difluorobenzyl)-2-furanacetamide • D,L-α-Acetamido-N-(2,6-difluorobenzyl)-2-furanacetamide • D-(-)-α-Acetamido-N-benzyl-2-furanacetamide • L-(+)-α-Acetamido-N-benzyl-2-furanacetamide • D,L-2-Acetamido-4-pentenoic acid-N-benzylamide • D,L-2-Acetamido-N-benzyl-2-(1-morpholine)acetamide (reference compound) • D,L-2-Acetamido-N-benzyl-2-(N-anilino)acetamide • D,L-2-Acetamido-N-benzyl-2-(methylamino)acetamide • D,L-2-Acetamido-N-benzyl-2-(ethylamino)acetamide • D,L-2-Acetamido-N-benzyl-3-indoleacetamide (reference compound)
(§2) N-Acetyl-D,L-alanine-N'-benzylamide was tested at […] as well. […] Maximal electroshock seizures (MES) were elicited with a 60 cycle alternating current of 50 mA intensity (5-7 times that necessary to elicit minimal electroshock seizures) delivered for 0.2 sec via corneal electrodes. A drop of 0.9% saline was instilled in the eye prior to application of the electrodes so as to prevent the death of the animal. Protection in this test was defined as as the abolition of the hind limb tonic extension component of the seizure. The Subcutaneous Pentylenetetrazole (Metrazol^R) Seizure Threshold Test (sc Met) entailed the administration of 85 mg/kg of pentylenetetrazole as a 0.5% solution subcutaneously in the posterior midline. […] Protection was defined as a failure to observe even a threshold seizure (a single episode of clonic spasms of at least 5 sec duration). The effects of the compounds on forced and spontaneous motor activity were evaluated in mice using the Rotorod Test (Tox) or, in some cases, as indicated herein, a horizontal screen assay (HS). The procedure for the rotorod test is described in J. Am. Pharm. Assoc., 46, 208-209 (1957). In the rotorod test, the animal was placed on a one-inch diameter knurled plastic rod rotating at 6 rpm after the administration of the drug. Normal mice can remain on a rod rotating at this speed indefinitely. Neurologic toxicity was defined as the failure of the animal to remain on the rod for one minute. In the horizontal screen test, previously trained mice were dosed with the compound and placed individually on top of a square (13 cm X 13 cm) wire screen (no. 4 mesh) which was mounted on a metal rod. The rod was rotated 180°, and the number of mice that returned to the top of the screen was determined. Inability to climb to the top within one minute was defined as "neurological impairment". This procedure is described in Pharmacol. Biochem. Behav. 6, 351-353 (1977).
(§3) The dose effect behavior of the compounds was evaluated using the above-described procedures by the administration of varying dose levels, treating normally eight mice at each dose. […]

Data set [2] has as its system male Carworth Farms #1 mice. In words: Horizontal screen test (HS), neurological impairment. It is filed as in vivo. Particulars: determined using the horizontal screen test (footnote xx), 95% confidence intervals in brackets.
Description: as §1, §2, §3

Test in data set [3]: as above
It is filed as in vivo. Conditions: mouse, in vivo; mice; determined using the horizontal screen test (footnote xx); 95% confidence intervals in brackets; read-out: Tox TD50.
Description: as §1, §2, §3

Data set [4] can be described thus: Rotorod Test (Tox), neurologic toxicity. Particulars: mouse, in vivo, mice, median toxic dose, 95% confidence intervals in brackets.
Description: The effects of the compounds on forced and spontaneous motor activity were evaluated in mice using the Rotorod Test (Tox) or, in some cases, as indicated herein, a horizontal screen assay (HS). […] In the rotorod test, the animal was placed on a one-inch diameter knurled plastic rod rotating at 6 rpm after the administration of the drug. Normal mice can remain on a rod rotating at this speed indefinitely. Neurologic toxicity was defined as the failure of the animal to remain on the rod for one minute. In the horizontal screen test, previously trained mice were dosed with the compound and placed individually on top of a square (13 cm X 13 cm) wire screen (no. 4 mesh) which was mounted on a metal rod. The rod was rotated 180°, and the number of mice that returned to the top of the screen was determined. Inability to climb to the top within one minute was defined as "neurological impairment".
For data set [5], the system named is male Carworth Farms #1 mice. In words: Subcutaneous Pentylenetetrazole (Metrazol) Seizure Threshold Test (sc Met). It is filed as in vivo. Particulars: 85 mg/kg pentylenetetrazole subcutaneously, 95% confidence intervals in brackets. How it is done:
Pharmacology. […]
N-Acetyl-D,L-alanine-N'-benzylamide was tested at 600 mg/mL as well. […] The effects of the compounds on forced and spontaneous motor activity were evaluated in mice using the Rotorod Test (Tox) or, in some cases, as indicated herein, a horizontal screen assay (HS). […] The rod was rotated 180°, and the number of mice that returned to the top of the screen was determined. […]
as §3

[6] abbreviates: 50 mA, 0.2 sec, corneal electrodes, 95% confidence intervals in brackets.

`CC(=O)NC(C(=O)NCc1ccccc1)c1ccc(C)o1` (racemic) [(D,L)-α-Acetamido-N-benzyl-2-(5-methylfuran)acetamide] displayed an ED50 in data set [1] (setting [6]) of 19.2 mg/kg. In addition, the “Tox TD50” value in data set [2] is on record as 75.4^xx mg/kg. In data set [1] (setting [6]), `CC(=O)NC(C(=O)NCc1ccccc1)c1cc2ccccc2o1` (racemic) [(D,L)-α-Acetamido-N-benzyl-2-benzofuranacetamide] returned an ED50 of 100 to 300 mg/kg. Further, in data set [3], the TD50 was in the range of 100 to 300 mg/kg. The compound `CC(=O)NC(C(=O)NCc1cc(F)ccc1F)c1ccco1` (racemic) [(D,L)-α-Acetamido-N-(2,5-fluorobenzyl)-2-furanacetamide] yielded an ED50 in data set [1] (setting [6]) of 23.8 mg/kg. For the compound `CC(=O)NC(C(=O)NCc1c(F)cccc1F)c1ccco1` (racemic) [(D,L)-α-Acetamido-N-(2,6-difluorobenzyl)-2-furanacetamide], the ED50 in data set [1] (setting [6]) lay in the range of 25 to 100 mg/kg. Regarding `CC(=O)NC(C(=O)NCc1cccc(F)c1)c1ccco1` (racemic) [(D,L)-α-Acetamido-N-(3-fluorobenzyl)-2-furanacetamide], the ED50 in data set [1] (setting [6]) amounted to 13.3 mg/kg. In addition, the TD50 in data set [3] is 136 mg/kg. In data set [1] (setting [6]), `CC(=O)NC(C(=O)NCc1ccccc1)c1cc2ccccc2s1` (racemic) [(D,L)-α-Acetamido-N-benzyl-2-benzo[b]thiopheneacetamide] returned an ED50 of 100 to 300 mg/kg. In addition, the TD50 in data set [3] was in the range of 100 to 300 mg/kg. For the compound `CCNC(NC(C)=O)C(=O)NCc1ccccc1` (racemic) [(D,L)-2-Acetamido-N-benzyl-2-(ethylamino)acetamide], the 50% effect level in data set [1] (setting [6]) (ED50) was put at a dose of 42.4 mg/kg. In data set [1] (setting [6]), `CNC(NC(C)=O)C(=O)NCc1ccccc1` (racemic) [(D,L)-2-Acetamido-N-benzyl-2-(methylamino)acetamide] came in with an ED50 of 44.5 mg/kg. In data set [4], this compound showed a TD50 of 95 mg/kg. In turn, `CC(=O)NC(Nc1ccccc1)C(=O)NCc1ccccc1` (racemic) [(D,L)-2-Acetamido-N-benzyl-2-(N-anilino)acetamide] came in with an ED50 in data set [1] (result given as footnote symbol) of no less than 300 mg/kg. `CC(=O)NC(C(=O)NCc1ccccc1)c1ccc(C)[nH]1` (racemic) [(D,L)-α-Acetamido-N-benzyl-2-(5-methylpyrrole)acetamide] gave an ED50 in data set [1] (setting [6]) of 36.5 mg/kg. Still for that read-out and setting: for `CC(=O)NC(C(=O)NCc1ccccc1F)c1ccco1` (racemic) [(D,L)-α-Acetamido-N-(2-fluorobenzyl)-2-furanacetamide] the value was 40 mg/kg.

As to `O=C1NC(=O)C(c2ccccc2)(c2ccccc2)N1` [phenytoin], in data set [5], the “sc Met ED50” value was “not effective”. As to `CC(=O)NC(C(=O)NCc1ccccc1)c1ccco1` (racemic) [D,L-α-Acetamido-N-benzyl-2-furanacetamide], the TD50 is greater than 300 mg/kg in data set [4] and 23.8 mg/kg in data set [3]. The compound `CC(=O)NC(C(=O)NCc1ccccc1)N1CCOCC1` (racemic) [(D,L)-2-Acetamido-N-benzyl-2-(1-morpholine)acetamide, reference compound] yielded an ED50 in data set [1] (setting [6]) of 30 to 100 mg/kg. Regarding `CC(=O)NC(C(=O)NCc1ccc(F)cc1)c1ccco1` (racemic) [(D,L)-α-Acetamido-N-(4-fluorobenzyl)-2-furanacetamide], it took a dose of 12.7 mg/kg to reach the 50% effect level in data set [1] (setting [6]) (ED50). Also, the TD50 in data set [3] came out at 144 mg/kg. `C=CCC(NC(C)=O)C(=O)NCc1ccccc1` (racemic) [(D,L)-2-Acetamido-4-pentenoic Acid-N-benzylamide] came in with an ED50 in data set [1] (setting [6]) of 33.6 mg/kg.
